Measurements as given in patent US9403778B2, “Agents that prevent or repair skin damage” (Regents of the University of Minnesota, priority 2012, dated 2016).

Key:
[1] = test system: xpc; assay: Test D. Murine animal studies: up-regulation of DNA repair enzyme xpc in dorsal skin; assay type: in vivo, mouse; details: 5% in cream vehicle, topical
Protocol: (§1) The UVA, UVB and Solar Simulated Light (SSL) treatment groups included mice that were left untouched in their cages (no preventative treatment) and mice treated topically on their backs with cream vehicle or AR compounds in the cream vehicle and rubbed with a glove. At 20 minutes post treatment the mice were exposed to 180 mJ/cm^2 of UVA, UVB or SSL equivalent to one hour of noon day summer sunlight. One, four, eight and twenty-four hours post UVA, UVB or SSL exposure, the mice were euthanized by IP Ketamine/Xylazine injection and bled.
(§2) The no UVA, UVB and SSL treatment groups included mice which were left untouched in their cages (no preventative treatment) and mice treated topically on their backs with cream vehicle and AR compounds in cream vehicle as indicated above. After treatment the mice were placed back into their cages, away from sunlight. One, four, eight and twenty-four hours post treatment, the no UVA, UVB and SSL treated mice were euthanized by IP Ketamine/Xylazine injection and bled.
(§3) For the animal groups above, post euthanasia, the dorsal and belly skin was collected and preserved in Zamboni's fixative for future studies. […] The skin was analyzed in-house by immunohistostaining (p53, thymine dimer, XPC and other DNA repair enzymes, collagen, elastin, etc.) and confocal microscopy. […]

[2] = test system: SKH-1 hairless mouse dorsal skin; assay: Test D. Murine animal studies: thymine dimer formation (DNA damage) in dorsal skin; assay type: in vivo
Protocol: Test D. Murine Animal Studies
as §1, §2, §3

[3] = test system: xpc; assay: Test E. Human skin study: xpc production
Protocol: Human skin was obtained from the University of Minnesota BioNet Tissue Procurement Facility and stored on ice or in cell culture media until ready to be used. All samples were kept away from sunlight. The skin was cut into pieces and placed in 6-well cell culture plates with a small amount of culture media at the bottom of the well but not enough to cover the top of the tissue. Using a gloved hand, the skin was rubbed with cream vehicle or AR drug in the cream vehicle. At 20 minutes post treatment the skin was exposed to 180 mJ/cm^2 of UVA, UVB or Solar Simulated Light (SSL) equivalent to one hour of noon day summer sunlight. Post UVA, UVB or SSL exposure, additional media was placed in the bottom of the wells and the plates moved to the tissue culture incubator (37° C., 5% CO2). Samples were removed from the incubator and placed in Zamboni's fixative for future studies at one, four, eight and twenty-four hours post UVA, UVB or SSL exposure.
Samples not exposed to UVA, UVB or SSL light were placed into 6-well plates with a small amount of cell culture media but not enough to cover the top of the tissue and stored in the cell culture incubator. […]
All skin samples were analyzed in-house by immunohistostaining (p53, thymine dimer, XPC and other DNA repair enzymes, collagen, elastin, etc.) and confocal microscopy.

In the case of `CCCC(=O)N(CCn1cc(C)c(=O)[nH]c1=O)CCn1cc(C)c(=O)[nH]c1=O` [Compound 24a], the “xpc production in SSL exposed skin” value ([1]; solar simulated light equivalent to 1 h noon time summer sun light, vs SSL cream-only control) is reported as “stimulated xpc production” and the “protection against thymine dimer formation (DNA damage)” value ([2]; in cream vehicle, topical 20 minutes prior to UVB 6 KJ/m^2, harvested 4 hours after irradiation, vs UV only control) is reported as “protected against thymine dimer formation”.
With `C[C@@]12C(=O)NC(=O)N3CCCN4C(=O)NC(=O)[C@]1(C)[C@H]4[C@H]32` [Compound 10] the “xpc immuno-reactivity (xpc antibody)” value ([1]; no SSL irradiation) was “significant immuno-reactivity”, the “thymine dimer immuno-reactivity of skin section” value ([2]; 5% in cream vehicle, topical, no SSL irradiation, 8 hour time point) was “completely negative” and the “xpc levels / xpc staining in non-irradiated human skin” value ([3]; human skin not exposed to SSL, compared with SSL only control) was “higher levels of xpc than the SSL only control”. For the same molecule, the “time post application at which xpc stimulation is still evident” value ([3]; non SSL damaged human skin) was at least 8 h.
